From patent US20240408119A1, “DELIVERY OF THERAPEUTIC ALKALOID COMPOUNDS” (priority 2022, published 2024)
Where two headings read alike, the source gives them in different places.

How the values were obtained:
[1] = assay type: in vitro ADME, mouse; details: 5 μM, 37° C.; for Mouse Plasma Prodrug (%): prodrug remaining; for Mouse Plasma Metabolite (%): metabolite (mesembrine) accumulated
Description: (§1) Each test was carried out in duplicate for each time point; 0 min, 15 min, 30 min, 60 min, 120, 240 min. […]

[2] = assay type: in vitro ADME, human; details: 5 μM, 37° C.; for Human Plasma Prodrug (%): prodrug remaining; for Human Plasma Metabolite (%): metabolite (mesembrine) accumulated
Description: as §1

[3] = Hydrolysis Assay - Condition 2 (DI Water); assay type: physicochemical; details: 25° C., 0.5 mM
Description: 50 μL of compound (10 mM) in DMSO was diluted into 950 μL of DI water to a final concentration of 0.5 mM. The hydrolysis kinetics were conducted at 25° C. and measured by LCMS at a certain time interval.
(§2) The corresponding LCMS chromatogram were recorded and the conversions were calculated by integration of each peak.
(§3) • 1) LCMS spectra were obtained using Agilent 1200G1956A or SHIMADZU LCMS-2020. Standard LCMS conditions were as follows (running time 1.55 minutes): • Acidic condition: Mobile Phase A: 0.0375% TFA in water (v/v). Mobile Phase B: 0.01875% TFA in acetonitrile (v/v); Column: Kinetex EVO C18 30*2.1 mm, 5 μm. • Basic condition: Mobile Phase A: 0.025% NH3·H2O in water (v/v). Mobile Phase B: Acetonitrile; Column: Kinetex EVO C18 2.1×30 mm, 5 μm. • 2) Conversion (%)=peak area 1/(peak area 1+peak area 2)*100%, peak area 1 is the integration of hydrolyzed product, peak area 2 is the integration of starting material.

[4] = Hydrolysis Assay - Condition 1 (SGF); assay type: physicochemical; details: SGF with pepsin pH 1.5, 37° C., 0.5 mM
Description: 50 μL of compound (10 mM) in DMSO was diluted into 950 μL of Simulated Gastric Fluid (SGF) with pepsin (pH 1.5) to a final concentration of 0.5 mM. The hydrolysis kinetics were conducted at 37° C. and measured by LCMS at a certain time interval.
as §2, §3

[5] = Plasma Stability Assay (Example A3), rat plasma; assay type: in vitro ADME; details: prodrug remaining, 10 μM, 37° C.
Excerpt: (§4) The data is represented in the table below.

[6] = Plasma Stability Assay (Example A3), human plasma; assay type: in vitro ADME; details: prodrug remaining, 10 μM, 37° C.
Excerpt: as §4

SMILES	Mouse Plasma Prodrug (%) ([1]; 0 min)	Mouse Plasma Prodrug (%) ([1]; 15 min)	Mouse Plasma Prodrug (%) ([1]; 30 min)	Mouse Plasma Prodrug (%) ([1]; 60 min)	Mouse Plasma Prodrug (%) ([1]; 120 min)	Mouse Plasma Prodrug (%) ([1]; 240 min)	Human Plasma Prodrug (%) ([2]; 0 min)	Human Plasma Prodrug (%) ([2]; 15 min)	Human Plasma Prodrug (%) ([2]; 30 min)	Human Plasma Prodrug (%) ([2]; 60 min)	Human Plasma Prodrug (%) ([2]; 120 min)	Human Plasma Prodrug (%) ([2]; 240 min)	Condition 2 Conversion (%) ([3]; 1 min)	Condition 2 Conversion (%) ([3]; 5 min)	Condition 2 Conversion (%) ([3]; 30 min)	Condition 2 Conversion (%) ([3]; 1 h)	Condition 2 Conversion (%) ([3]; 4 h)	Condition 2 Conversion (%) ([3]; 24 h)	Condition 1 Conversion (%) ([4]; 1 min)	Condition 1 Conversion (%) ([4]; 5 min)	further results
COc1ccc([C@@]23CCC(OC(=O)N4CCN(C)CC4)=C[C@@H]2N(C)CC3)cc1OC [Compound 327, [(3aS,7aS)-3a-(3,4-dimethoxyphenyl)-1-methyl-3,4,5,7a-tetrahydro-2H-indol-6-yl]4-methylpiperazine-1-carboxylate]	100	>99	>99	>99	>99	>99	100	>99	98.9	>99	>99	94.4	0	0	0	0	0	0	0	0	Condition 1 Conversion (%) ([4]; 30 min): 0%; Condition 1 Conversion (%) ([4]; 1 h): 0%; Condition 1 Conversion (%) ([4]; 4 h): 0%; Condition 1 Conversion (%) ([4]; 24 h): 0%
CCN(C)C(=O)OC1=C[C@@H]2N(C)CC[C@]2(c2ccc(OC)c(OC)c2)CC1 [Compound 326, [(3aS,7aS)-3a-(3,4-dimethoxyphenyl)-1-methyl-3,4,5,7a-tetrahydro-2H-indol-6-yl] N-ethyl-N-methyl-carbamate]	100.0	>99	96.6	>99	>99	98.5	100.0	98.2	99.9	98.4	>99	93.9	0	0	0	0	0	0	0	0	Condition 1 Conversion (%) ([4]; 30 min): 0%; Condition 1 Conversion (%) ([4]; 1 h): 0%; Condition 1 Conversion (%) ([4]; 4 h): 0%; Condition 1 Conversion (%) ([4]; 24 h): 0%
COc1ccc([C@@]23CCC(OP(=O)(Oc4ccccc4)Oc4ccccc4)=C[C@@H]2N(C)CC3)cc1OC [Compound 320, [(3aS,7aS)-3a-(3,4-dimethoxyphenyl)-1-methyl-3,4,5,7a-tetrahydro-2H-indol-6-yl]diphenyl phosphate]	100	58.5	46.5	30.7	19.4	11.7	100	95.7	98.5	95.7	98.2	95.3									Mouse Plasma Metabolite (%) ([1]; 0 min): 11.8%; Mouse Plasma Metabolite (%) ([1]; 15 min): 15.9%; Mouse Plasma Metabolite (%) ([1]; 30 min): 16.9%; Mouse Plasma Metabolite (%) ([1]; 60 min): 18.6%; Mouse Plasma Metabolite (%) ([1]; 120 min): 19.1%; Mouse Plasma Metabolite (%) ([1]; 240 min): 18.9%; Human Plasma Metabolite (%) ([2]; 0 min): 7.6%; Human Plasma Metabolite (%) ([2]; 15 min): 8.0%; Human Plasma Metabolite (%) ([2]; 30 min): 8.5%; Human Plasma Metabolite (%) ([2]; 60 min): 8.6%; Human Plasma Metabolite (%) ([2]; 120 min): 9.4%; Human Plasma Metabolite (%) ([2]; 240 min): 10.4%
COc1ccc([C@@]23CCC(OP(=O)(O)OCOC(=O)OC(C)C)=C[C@@H]2N(C)CC3)cc1OC [Compound 410, [[(3aS,7aS)-3a-(3,4-dimethoxyphenyl)-1-methyl-3,4,5,7a-tetrahydro-2H-indol-6-yl]oxy-hydroxy-phosphoryl]oxymethyl isopropyl carbonate]																					Rat Plasma Prodrug (%) ([5]; 0 min): 100.0%; Rat Plasma Prodrug (%) ([5]; 10 min): 63.0%; Rat Plasma Prodrug (%) ([5]; 30 min): 25.4%; Rat Plasma Prodrug (%) ([5]; 60 min): 7.1%; Rat Plasma Prodrug (%) ([5]; 120 min): 0.52%; Rat Plasma Prodrug (%) ([5]; 240 min): 0.01%; Human Plasma Prodrug (%) ([6]; 0 min): 100.0%; Human Plasma Prodrug (%) ([6]; 10 min): 96.3%; Human Plasma Prodrug (%) ([6]; 30 min): 98.8%; Human Plasma Prodrug (%) ([6]; 60 min): 92.7%; Human Plasma Prodrug (%) ([6]; 120 min): 88.2%; Human Plasma Prodrug (%) ([6]; 240 min): 75.5%
COc1ccc([C@@]23CCC(OC(=O)N(C)C)=C[C@@H]2N(C)CC3)cc1OC [Compound 324, [(3aS,7aS)-3a-(3,4-dimethoxyphenyl)-1-methyl-3,4,5,7a-tetrahydro-2H-indol-6-yl] N,N-dimethylcarbamate]	100.0	97.4	94.4	94.9	92.6	88.9	100.0	98.2	98.7	>99	>99	96.5	0	0	0	0	0	0	0	0	Condition 1 Conversion (%) ([4]; 30 min): 0%; Condition 1 Conversion (%) ([4]; 1 h): 0%; Condition 1 Conversion (%) ([4]; 4 h): 0%; Condition 1 Conversion (%) ([4]; 24 h): 0%
COc1ccc([C@@]23CCC(OP(=O)(O)O)=C[C@@H]2N(C)CC3)cc1OC [Compound 359, [(3aS,7aS)-3a-(3,4-dimethoxyphenyl)-1-methyl-3,4,5,7a-tetrahydro-2H-indol-6-yl] dihydrogen phosphate]	100	>99	82.7	79.0	50.7	59.1	100	69.0	65.1	50.4	32.8	25.6									Mouse Plasma Metabolite (%) ([1]; 0 min): 0.0%; Mouse Plasma Metabolite (%) ([1]; 15 min): 0.0%; Mouse Plasma Metabolite (%) ([1]; 30 min): 0.0%; Mouse Plasma Metabolite (%) ([1]; 60 min): 0.0%; Mouse Plasma Metabolite (%) ([1]; 120 min): 0.0%; Mouse Plasma Metabolite (%) ([1]; 240 min): 0.0%; Human Plasma Metabolite (%) ([2]; 0 min): 0.0%; Human Plasma Metabolite (%) ([2]; 15 min): 0.0%; Human Plasma Metabolite (%) ([2]; 30 min): 0.0%; Human Plasma Metabolite (%) ([2]; 60 min): 0.0%; Human Plasma Metabolite (%) ([2]; 120 min): 15.7%; Human Plasma Metabolite (%) ([2]; 240 min): 23.0%
